Our source for the cytotoxicity values is ChEMBL document CHEMBL3507680, “University of Dundee, Gates Library screen for HepG2 cell viability”.

A short description of this series: Human HepG2 cell viability assay in 384 well format. Type of series: toxicity, cell-based. Further details: dose 125 nL, time 70.5 hour; cytotoxicity at 70.5 h: concentration not given beside the values. To be noted: HepG2 cells, read-out: Inhibition.

For the molecule `COc1ccc(-n2nc(C(C)=O)c(C(C)=O)c2C)cc1Cl`, the cytotoxicity at 70.5 h came out at 17.1%.
For `Cc1nn(C)c(=O)c2nn(-c3cccc(Cl)c3)c(C)c12` the value was -14.1%.
For `Cc1nn(C)c(=O)c2nn(-c3ccc(Cl)cc3)c(C)c12` the value was -1.68%; for `CC(=O)c1nn(-c2ccccc2)c(C)c1C(C)=O`, -8.03%; for `COc1ccc(-c2nnsc2C(=O)N2CCSCC2)cc1`, -8.21%.
Regarding `COc1ccc(-c2nnsc2C(=O)N2CCC(C(N)=O)CC2)cc1`, the cytotoxicity at 70.5 h was -13.8%.
For the molecule `Cc1cs/c(=N\C(=O)Cn2nc(N3CCSCC3)ccc2=O)[nH]1`, the cytotoxicity at 70.5 h is -13.2%.
Next, `Cc1cs/c(=N\C(=O)Cn2nc(N3CCOCC3)ccc2=O)[nH]1`: -13.8%; `Cc1cn([C@@H]2CC3(CCNCC3)OC[C@@]2(C)O)c(=O)[nH]c1=O`: 0.487%.
Take `c1cnc(N2CCC(c3csc(Nc4cnccn4)n3)CC2)nc1`: the cytotoxicity at 70.5 h was 12.4%.
For `O=C1CCOC[C@]2(CN(Cc3ccccc3)C[C@H]2c2ccccc2)N1` the value was 26.7%.
For the molecule `COc1ccccc1Cc1cc(O)nc(NC(C)CN(C)C)n1` (centres undefined), the cytotoxicity at 70.5 h was determined as 2.81%.
In the case of `Cc1ccccc1OCCCNC(=O)C1(C)CC(=O)N2C=CC=CC2=N1` (centres undefined), the cytotoxicity at 70.5 h came out at 0.923%.
As to `CCC(C)(C)n1nnnc1C(c1cccs1)N1CCc2ccccc2C1` (centres undefined), the cytotoxicity at 70.5 h amounted to 0.836%.
For `Cc1nc(=O)c2ccccc2n1C1=CCN(CC(=O)NC(C)C)CC1`, the cytotoxicity at 70.5 h is -1.95%.
For `Cc1nc(NCCN2CCCC2=O)cc(C2CN(C(C)C)CCO2)n1` (centres undefined) the value was 1.39%; for `CC(C)C(=O)N1CCCC(Cc2ncccn2)C1` (centres undefined), -1.65%.
As for `CCC(=O)N1CCC(c2nc(N3CCCC3)ncc2S(C)(=O)=O)CC1`, the cytotoxicity at 70.5 h was 17.6%.
For `O=C(NCCO)C1(CC2CC(c3ccc(F)cc3)=NO2)CCOCC1` (centres undefined) the value was 14.1%.
For `CC(=O)N1CCC(c2noc(C3CCC(=O)N3)n2)CC1` (centres undefined), the cytotoxicity at 70.5 h was found to be 16.7%.
As for `Cc1noc(C)c1-c1nc(C2CCCN(C(=O)CN)C2)ccc1CO` (centres undefined), the cytotoxicity at 70.5 h is -11.3%.
On to `Cc1c(CN2CCCC2c2cncc(CN3CCCC3)n2)cnn1C` (centres undefined), for which the cytotoxicity at 70.5 h amounted to 1.84%.
Regarding `CCn1cc(S(=O)(=O)N2CCC(C3CCCCN(C)C3=O)CC2)c(C)n1` (centres undefined), the cytotoxicity at 70.5 h turned out to be 7.12%.
For `CC(C)c1cc(C(=O)N2CCCC(c3cc(=O)nc4n3CCC4)C2)no1` (centres undefined) the value was -11.3%.
Regarding `FC(F)(F)c1cc(C2CCCN(c3cnccn3)C2)n2ccnc2n1` (centres undefined), the cytotoxicity at 70.5 h was -11.9%.
`CC(=O)N[C@H]1CCO[C@@H](c2cccc(NC(=O)c3ccc(=O)[nH]n3)c2)C1`: the cytotoxicity at 70.5 h was determined as 24.6%.
For `COc1ccc(NC(=O)c2cnc(C3CCN(C(C)=O)C3)nc2C)cc1` (centres undefined), the cytotoxicity at 70.5 h was 17.3%.
Consider `CC1(c2ncc(CN3CCSCC3)cn2)CCCCO1` (centres undefined), for which the cytotoxicity at 70.5 h was -11.9%.
In the case of `O=C(CCn1cccn1)N1CCC(c2nnc(-c3ccsc3)o2)CC1`, the cytotoxicity at 70.5 h is -8.63%.
For `CN1CCCC1c1ccnc2nccn12` (centres undefined) the value was -7.34%.
In the case of `COc1nsc2nc(C3CCCN3c3ncccn3)ccc12` (centres undefined), the cytotoxicity at 70.5 h is -7.28%.
For the molecule `O=S1(=O)NC(C2CCCN(S(=O)(=O)N3CCCC3)C2)=Nc2ccccc21` (centres undefined), the cytotoxicity at 70.5 h was -6.9%.
Next, `CC(=O)N[C@H]1CCO[C@@H](c2cccc(NC(=O)Cc3ccccc3)c2)C1`: 10.3%; `CC1(C(N)=O)CN(S(=O)(=O)c2cccc(F)c2)CCO1` (centres undefined): 14.7%.
As to `Cc1nn(C)cc1NC(=O)CN1CCN(C2CCCC2)C(=O)C1`, the cytotoxicity at 70.5 h is -6.18%.
On to `Cc1nccn1CCCn1cncc1-c1ccc2c(c1)CC(C)N2C` (centres undefined), for which the cytotoxicity at 70.5 h is 3.68%.
As for `O=C(c1ccnc(C2CCNCC2)c1)N1CCCC1`, the cytotoxicity at 70.5 h came to 7.01%.
`CC(C)[C@H](N)C(=O)N1CCCC(C2=Nc3ccccc3S(=O)(=O)N2)C1` (some centres undefined): the cytotoxicity at 70.5 h is -9.78%.
On to `Cc1nc(N)c2ccc(C3CCCN3)nc2n1` (centres undefined), for which the cytotoxicity at 70.5 h is -9.62%.
